This note sets out measurements from paper PMC8391421, “Identification of Novel Positive Allosteric Modulators of Neurotrophin Receptors for the Treatment of Cognitive Dysfunction” (Cells, 2021).

The test system of one assay is C57BL/6J mice. The assay can be described thus: Morris water maze. In kind it is in vivo, mouse. On the procedure: Male C57BL/6J mice (n = 8/group) from Taconic, Lille Skensved, Denmark, 7–8 weeks of age at arrival, were used in experiments that were predominantly performed as described previously. Vehicle or ACD855 (3 mg/kg; formulated in 20% DMSO in 0.1 M sodium phosphate buffer pH 8.0) was administered daily for the first four days (Day 1–4) through subcutaneous (s.c.) injections (10 mL/kg body weight). During the behavioral training days (Day 5–10), ACD855 or vehicle was administered s.c. 60 min prior to training. Moreover, during the behavioral training days, scopolamine (0.3 mg/kg) or vehicle was administered s.c. 30 min prior to training.

A further assay deals with T1, TrkA (Homo sapiens, UniProt P04629).
T1 construct: host or cells: U2OS (human osteosarcoma), co-expressing p75 and SHC-1 fused to the enzyme acceptor
T1 sequence (P04629 33-796): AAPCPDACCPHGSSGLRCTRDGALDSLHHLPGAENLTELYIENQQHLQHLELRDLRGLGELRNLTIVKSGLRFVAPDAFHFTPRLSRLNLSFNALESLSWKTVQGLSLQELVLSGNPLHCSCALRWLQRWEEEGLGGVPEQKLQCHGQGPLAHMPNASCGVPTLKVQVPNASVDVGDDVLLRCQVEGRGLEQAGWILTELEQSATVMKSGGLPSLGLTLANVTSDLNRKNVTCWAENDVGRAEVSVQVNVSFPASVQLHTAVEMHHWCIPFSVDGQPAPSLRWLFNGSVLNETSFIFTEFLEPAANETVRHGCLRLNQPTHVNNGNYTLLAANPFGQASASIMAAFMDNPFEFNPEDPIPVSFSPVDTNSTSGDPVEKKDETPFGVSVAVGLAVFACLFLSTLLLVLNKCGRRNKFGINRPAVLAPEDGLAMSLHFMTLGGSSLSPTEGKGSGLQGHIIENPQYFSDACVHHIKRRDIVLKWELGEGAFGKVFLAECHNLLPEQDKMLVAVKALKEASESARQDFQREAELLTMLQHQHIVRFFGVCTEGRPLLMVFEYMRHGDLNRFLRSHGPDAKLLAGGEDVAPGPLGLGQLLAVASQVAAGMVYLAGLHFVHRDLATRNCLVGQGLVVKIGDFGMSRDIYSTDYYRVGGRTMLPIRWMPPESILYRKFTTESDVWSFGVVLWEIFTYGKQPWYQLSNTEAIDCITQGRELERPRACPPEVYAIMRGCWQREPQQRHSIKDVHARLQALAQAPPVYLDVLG
Description: TrkA PathHunter cell-based assay (U2OS-TrkA/p75). On the procedure: U2OS cells were maintained subconfluent in EMEM supplemented with 10% FBS and penicillin/streptomycin/hygromycin and G418. One day prior to the experiment, 5000 cells of EMEM supplemented with 0.5% horse serum were seeded in each well of a 384-well white plate. The assay was performed as previously described. Briefly, the TrkA or TrkB cell-based PathHunter® assays use enzyme fragment complementation (EFC) technology for the complementation of two β-galactosidase (β-gal) fragments in order to study protein–protein interactions. Upon activation with ligand, TrkA or TrkB are phosphorylated on several tyrosine residues, including tyrosine 490, leading to an interaction with SHC-1. In the PathHunter® assays, the Trk-receptors are fused to an enzyme donor tag, and SHC-1 is fused to a larger part of β-gal called an enzyme acceptor. The interactions between the recombinant enzyme donor, i.e., the Trk-receptor, with an enzyme acceptor, i.e., SHC-1, leads to an active β-gal enzyme. The functional (complemented) β-gal will hydrolyze a substrate to generate a luminescence signal. The generated luminescence was read using an EnVision plate reader from PerkinElmer, Upplands Väsby, Sweden, or an ID5 plate reader from Molecular Devices, Berkshire, RG41 5TS UK. […] Min- and Max-control wells were included on each plate.
Both Toltrazuril and Ponazuril are registered veterinary products prescribed for parasitic infections in animals. […] The activation of Trk-receptors leads to an intracellular interaction between the Trk-receptor and SHC-1 and thereby to the complementation of β-gal, which will render in a functional enzyme. β-gal will hydrolyze a substrate to generate luminescence, which is proportional to the number of activated receptors.

Broadly, the EC50 is the concentration needed to bring the measured effect to its halfway point. Read a low EC50 as higher potency in that assay.

Molecules are shown by their SMILES. “Also recorded” adds a separate entry of the source.

As to `Cc1cc(-n2c(=O)[nH]c(=O)n(C)c2=O)ccc1Oc1ccc(S(=O)(=O)C(F)(F)F)cc1` [ACD855, Toltrazuril-sulfone], in the assay on C57BL/6J mice (3 mg/kg s.c., no scopolamine, vs vehicle), the “effect of compound by itself on cognitive function (swim latency, Day 1)” value is recorded as “seemed to improve cognitive function compared to vehicle; also recorded: improved cognitive function compared to vehicle”. Further, in the assay on C57BL/6J mice (3 mg/kg s.c., scopolamine 0.3 mg/kg), the “effect on scopolamine-induced cognitive impairment (swim latency)” value is “significantly blocked; also recorded: completely blocked”. In the assay with C57BL/6J mice (control vs treated groups), the “retention test (probe trial)” value was “only an improvement trend” and the swim speed entry was “no significant differences”. For the same compound, the “modulation of TrkA activity over NGF dose-response curve” value on TrkA (0.3, 1 and 3 µM compound with a wide range of NGF concentrations) was “positively modulated TrkA activity”. Moreover, at TrkA (PathHunter cell-based assay), the EC50 was 1900 nM and the “TrkA Effect (efficacy)” value amounted to 144%. Also, the “activation of TrkA-receptor by compound itself” value on TrkA (without ligand, 100% = 30 ng/mL ligand) came out at 45%.
